Source: patent US12103965B2, “Diagnostic kit” (Phoenix Pharmaceuticals, Inc., priority 2011, dated 2024)
Where no end group is shown, it is not given here.

How the values were obtained:
[1] = system: rat pituitary adenoma cells, RC-4B/C; format: binding
Protocol: Also, rat pituitary adenoma cells, RC-4B/C cells, were used in the assay of radioligand binding. For the binding displacement, cells were incubated for 30 min with 50 pM 125I-Y0-Phoenixin-20 (amide SEQ. ID NO: 7) in the absence or presence of increasing concentrations of un-labeled Phoenixin-20 amide (amide SEQ. ID NO: 7) or phoenixin-14 amide (amide SEQ. ID NO: 9). Nonspecific binding was defined as total binding in the presence of 1 μM unlabeled Phoenixin-20 amide (amide SEQ. ID NO: 7) or phoenixin-14 amide (amide SEQ. ID NO: 9). After termination of the binding reaction by washing the cells with 1 ml of cold PBS, cells were solubilized with 0.5 ml of 1% SDS, and radioactivity was detected in a gamma counter.

[2] = system: rat pituitary adenoma cells, RC-4B/C; experiment: cAMP production in pituitary cells (cAMP Biotrak enzyme immunoassay); format: cell-based; conditions: 100 nM peptide, 30 min, in presence of IBMX; PBS-control 100% = 4.94±0.5 pmol/mg protein
Protocol: Rat pituitary adenoma cells, RC-4B/C (CRL-1903; ATCC, Manassas, VA, USA), were cultured in Dulbecco's Modified Eagle's Medium and Minimum Essential Alpha Medium (Invitrogen, CA, USA) supplemented with 0.01 mM non-essential amino acids, 15 mM HEPES, 2.5 ng/ml epidermal growth factor, and dialyzed, heat-inactivated fetal bovine serum (“FBS”) at 37° C. in a humidified cell incubator containing 5% carbon dioxide (“CO2”). After 2 days of cell cultured in 24 wells plate, cell were equilibrated for 2 hours in serum-free medium and then incubated with 0.1 mM 3-isobutyl-1-methylxanthine (“IBMX”) in serum-free medium 30 min again. Then, cells were challenged with either 100 nM of […]-NH2 (SEQ. ID NO: 7), DVQPPGLKVWSDPFG (SEQ. ID NO: 3), DVQPPGLKVWSDPF-NH2 (SEQ. ID NO: 9), or a PBS-control in the presence of IBMX and incubated for 30 min. After incubation, supernatant medium was then aspirated and the cells in each well were extracted by 70% cold ethanol. Alcohol was evaporated in a vacuum concentrator (PN: AES 2000, Savant, Hicksvile, NY, USA) Thereafter, cAMP content was determined by using a cAMP Biotrak enzyme immunoassay kit (GE healthcare-Amersham, Piscataway, NJ, USA) in accordance with the protocol of the manufacturer.

[3] = system: antibodies raised to AGIVQEDVQPPGLKVWSDPF-NH2 (SEQ. ID NO: 7); experiment: RIA/EIA cross-reactivity of anti-phoenixin antibodies; format: binding; conditions: RIA or EIA
Protocol: Homogenates were prepared from heart tissues of adult rats. The supernatant of the rat heart homogenates were passed through C18 column extraction cartridges and P6 gel filtration to further purify native peptide candidates. The immunoreactive fractions as determined by conventional enzyme immunoassay (“EIA”) in which labeled chemically synthesized peptides as described above compete with unlabeled native phoenixin peptide for a limited quantity of the anti-phoenixin peptide antibodies, produced as above described. The label can be biotin complex which by reaction with streptavidin horseradish peroxidase and sequent reaction of the horseradish peroxidase with colormetric or fluorescence substrates can be quantitated. […]
Homogenates of porcine or bovine or rat tissue of heart, lung, kidney, spinal cord, small intestine, liver, pancreas, hypothalamus, spleen, and thymus were prepared as above-described and the resulting fractions were processed by the above-described peptides extraction procedure and were assayed by radio-immunoassay (“[…]”) or Enzyme Immunoassay (EIA) using antibodies raised to […]-NH2 (SEQ. ID NO: 7). […] Protein concentrations were determined by bicinchoninic acid (“BCA”) protein assay in accordance to the protocol of the manufacturer Thermo Scientific, Rockford, Illinois using bovine serum albumin (“BSA”) as a standard. […]

| Substance | IC50 [1] [µM] | increase of intracellular cAMP production over the PBS control [2] | cross-reactive with antibodies raised to SEQ. ID NO: 7 [3] |
| --- | --- | --- | --- |
| AGIVQEDVQPPGLKVWSDPF-NH2 [SEQ. ID NO: 7, phoenixin (1-20) amide] | 0.0215 | greater than two fold and even three-fold | – |
| DVQPPGLKVWSDPF-NH2 [SEQ. ID NO: 9, phoenixin (7-20) amide] | 0.0179 | greater than two fold and even three-fold | 100% |
| phoenixin (7-21) (DVQPPGLKVWSDPFG; listed as Homo sapiens) [SEQ. ID NO: 3] | – | greater than two fold and even three-fold | less than 0.5% |
